According to ChEMBL document CHEMBL5154682, “TDP-43 Modulation by Tau-Tubulin Kinase 1 Inhibitors: A New Avenue for Future Amyotrophic Lateral Sclerosis Therapy” (J Med Chem, 2022):
Activity calls are given as the source filed them. No cut-off for these calls is given here.

How the values were obtained:
[1] = biological target: T1, Tau-tubulin kinase 2 (Homo sapiens, UniProt Q6IQ55); conditions: dose 10.0 µM, time 30.0 min
[2] = biological target: T2, Tau-tubulin kinase 1 (Homo sapiens, UniProt Q5TCY1); conditions: dose 10.0 µM, time 30.0 min
[3] = biological target: T1, Tau-tubulin kinase 2
[4] = biological target: T2, Tau-tubulin kinase 1
[5] = Selectivity index, ratio of IC50 for recombinant human TTBK1 to IC50 for recombinant human TTBK2
[6] = Permeability of the compound at pH 7.4 PBS/EtOH buffer (70:30) by PAMPA-BBB assay
[7] = system: SH-SY5Y; test: Neuroprotective activity against ethacrynic acid-induced neurotoxicity human SH-SY5Y cells assessed as increase in cell viability at 5 uM preincubated for 1 hr followed by ethacrynic acid addition and further incubated for 24 hrs by MTT assay; type: functional, cell-based; conditions: time 25.0 hrs
[8] = system: SH-SY5Y; test: Neuroprotective activity against ethacrynic acid-induced neurotoxicity human SH-SY5Y cells assessed as decrease in TDP-43 phosphorylation at Ser409 at 5 uM preincubated for 1 hr followed by EA addition and further incubated for 24 hrs by Western blot analysis; type: functional, cell-based; conditions: time 25.0 hrs
[9] = biological target: T2, Tau-tubulin kinase 1; test: Inhibition of TTBK1 in sporadic ALS patient derived human lymphoblasts assessed as reduction in cytosolic TDP-43 levels at 5 to 10 uM treated for 24 hrs by Western blot analysis; type: cell-based; conditions: Lymphoblastoid cell, dose 5-10 µM
[10] = biological target: T2, Tau-tubulin kinase 1; test: Inhibition of TTBK1 in sporadic ALS patient derived human lymphoblasts assessed as recovery nuclear localization of TDP-43 levels at 5 to 10 uM treated for 24 hrs by Western blot analysis; type: cell-based; conditions: Lymphoblastoid cell, dose 5-10 µM
[11] = system: SH-SY5Y; test: Neuroprotective activity against okadaic acid-induced neurotoxicity in human SH-SY5Y cells assessed as reduction in Tau hyperphosphorylation by measuring cell viability at 1 to 5 uM incubated for 24 hrs by MTT assay; type: functional, cell-based; conditions: dose 1-5 µM
[12] = biological target: T2, Tau-tubulin kinase 1; test: Inhibition of TTBK1 in sporadic ALS patient derived human lymphoblasts assessed as reduction in TDP-43 phosphorylation levels at 5 to 10 uM treated for 24 hrs by Western blot analysis; type: cell-based; conditions: Lymphoblastoid cell, dose 5-10 µM
[13] = biological target: T2, Tau-tubulin kinase 1; remark: listed apart in the source
[14] = biological target: T1, Tau-tubulin kinase 2; test: Inhibition of TTBK2 (unknown origin)

T2 sequence (Q5TCY1 whole entry): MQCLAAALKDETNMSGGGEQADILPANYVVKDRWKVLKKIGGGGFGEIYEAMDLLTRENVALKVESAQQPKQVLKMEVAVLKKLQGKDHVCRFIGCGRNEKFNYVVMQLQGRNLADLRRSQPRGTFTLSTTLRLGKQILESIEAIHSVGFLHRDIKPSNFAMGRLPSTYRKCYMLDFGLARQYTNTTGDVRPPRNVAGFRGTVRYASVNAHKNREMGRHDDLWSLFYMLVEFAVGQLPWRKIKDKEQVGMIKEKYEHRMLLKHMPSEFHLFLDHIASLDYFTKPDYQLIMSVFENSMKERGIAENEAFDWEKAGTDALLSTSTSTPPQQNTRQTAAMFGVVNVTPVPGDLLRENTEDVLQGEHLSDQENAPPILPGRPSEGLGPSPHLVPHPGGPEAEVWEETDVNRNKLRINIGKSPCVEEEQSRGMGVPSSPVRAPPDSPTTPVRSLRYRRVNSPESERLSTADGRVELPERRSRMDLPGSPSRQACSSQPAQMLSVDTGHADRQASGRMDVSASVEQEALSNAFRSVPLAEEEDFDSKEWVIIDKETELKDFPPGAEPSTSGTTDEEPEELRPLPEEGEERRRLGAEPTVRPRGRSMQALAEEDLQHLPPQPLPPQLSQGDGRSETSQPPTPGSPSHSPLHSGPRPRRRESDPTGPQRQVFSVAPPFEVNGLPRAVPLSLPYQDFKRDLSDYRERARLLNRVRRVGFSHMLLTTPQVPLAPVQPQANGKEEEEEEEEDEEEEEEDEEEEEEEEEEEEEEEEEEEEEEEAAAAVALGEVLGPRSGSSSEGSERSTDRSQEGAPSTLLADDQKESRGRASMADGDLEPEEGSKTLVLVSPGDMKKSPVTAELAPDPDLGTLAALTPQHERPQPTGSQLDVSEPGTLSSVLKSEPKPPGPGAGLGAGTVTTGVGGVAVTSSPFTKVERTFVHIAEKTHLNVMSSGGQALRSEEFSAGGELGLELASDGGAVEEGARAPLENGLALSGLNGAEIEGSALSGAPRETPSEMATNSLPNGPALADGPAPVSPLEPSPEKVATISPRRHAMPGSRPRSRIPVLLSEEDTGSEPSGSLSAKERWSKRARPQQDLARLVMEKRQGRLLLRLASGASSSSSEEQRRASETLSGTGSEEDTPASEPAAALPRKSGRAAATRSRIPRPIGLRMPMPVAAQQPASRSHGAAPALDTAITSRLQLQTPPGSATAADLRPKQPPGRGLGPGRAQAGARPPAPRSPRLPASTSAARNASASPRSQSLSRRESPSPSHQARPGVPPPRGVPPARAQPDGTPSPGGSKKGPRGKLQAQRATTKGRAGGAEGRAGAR
T1 sequence (Q6IQ55 whole entry): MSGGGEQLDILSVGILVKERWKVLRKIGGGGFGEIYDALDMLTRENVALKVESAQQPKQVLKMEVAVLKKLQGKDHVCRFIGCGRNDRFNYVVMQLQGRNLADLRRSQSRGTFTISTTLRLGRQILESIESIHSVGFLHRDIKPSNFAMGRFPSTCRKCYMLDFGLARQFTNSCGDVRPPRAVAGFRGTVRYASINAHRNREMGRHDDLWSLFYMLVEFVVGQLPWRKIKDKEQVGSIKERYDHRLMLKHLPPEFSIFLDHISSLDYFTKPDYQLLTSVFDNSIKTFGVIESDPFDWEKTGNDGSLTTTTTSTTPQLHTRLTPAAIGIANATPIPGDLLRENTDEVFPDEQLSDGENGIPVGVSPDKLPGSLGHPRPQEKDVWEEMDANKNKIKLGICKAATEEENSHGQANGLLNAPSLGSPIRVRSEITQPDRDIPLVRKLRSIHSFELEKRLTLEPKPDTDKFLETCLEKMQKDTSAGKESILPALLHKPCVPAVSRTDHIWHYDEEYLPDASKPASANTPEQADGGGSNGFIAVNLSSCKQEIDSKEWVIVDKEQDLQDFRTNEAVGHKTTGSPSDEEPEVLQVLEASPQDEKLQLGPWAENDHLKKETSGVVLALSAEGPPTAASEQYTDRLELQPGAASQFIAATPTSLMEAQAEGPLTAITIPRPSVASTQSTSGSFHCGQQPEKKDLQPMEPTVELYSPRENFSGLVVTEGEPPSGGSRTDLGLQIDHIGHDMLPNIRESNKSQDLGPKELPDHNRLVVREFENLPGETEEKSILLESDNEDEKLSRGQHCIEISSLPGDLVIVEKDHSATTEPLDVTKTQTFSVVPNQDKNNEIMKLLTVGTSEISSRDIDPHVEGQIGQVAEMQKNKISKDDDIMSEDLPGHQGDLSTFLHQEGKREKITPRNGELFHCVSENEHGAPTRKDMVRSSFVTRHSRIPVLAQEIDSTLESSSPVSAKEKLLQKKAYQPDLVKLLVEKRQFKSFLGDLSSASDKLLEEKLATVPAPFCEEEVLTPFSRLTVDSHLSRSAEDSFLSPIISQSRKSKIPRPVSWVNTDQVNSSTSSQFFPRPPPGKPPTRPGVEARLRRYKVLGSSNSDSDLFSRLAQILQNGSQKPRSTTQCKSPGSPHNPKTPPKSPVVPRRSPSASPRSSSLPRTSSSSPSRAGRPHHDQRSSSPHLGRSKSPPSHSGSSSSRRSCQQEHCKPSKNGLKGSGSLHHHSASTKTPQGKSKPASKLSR

| permeability [6] | Compound | IC50 [3] [µM] | IC50 [4] [µM] | Selectivity Index [5] | other results |
| --- | --- | --- | --- | --- | --- |
| – | Clc1ccc(Nc2ncnc3[nH]ncc23)cc1 | – | – | – | inhibition [1]: 1%; inhibition [2]: 8% |
| – | Clc1ccc(CCNc2ncnc3[nH]ccc23)cc1 | 86 | 18.2 | – | – |
| – | c1nc(NC2CCCCC2)c2cc[nH]c2n1 | – | – | – | inhibition [1]: 15%; inhibition [2]: 3% |
| – | Clc1cccc(Nc2ncnc3[nH]ccc23)c1 | 13.9 | 15.2 | 1.09 | – |
| – | c1nc(Nc2ccc(N3CCOCC3)cc2)c2cn[nH]c2n1 | – | – | – | inhibition [1]: 12%; inhibition [2]: 25% |
| – | c1cc2c(c(Nc3ncnc4[nH]ccc34)c1)CCCC2 | – | – | – | inhibition [1]: 10%; inhibition [2]: 23% |
| Permeable | Clc1cccc(Oc2ccc(Nc3ncnc4[nH]ccc34)cc2)c1 | – | – | – | inhibition [1]: 1%; Activity [7]: Active; Activity [8]: Active; Activity [9]: Active; Activity [10]: Active; Activity [11]: Active; Activity [12]: Active |
| Permeable | CN(C)CCCN1c2ccccc2Sc2ccccc21 [PROMAZINE] | – | – | – | – |
| – | CC[C@@](C)(O)C#Cc1cc2c(ccn2-c2cc(OC)nc(N)n2)cn1 | – | – | – | IC50 [13]: 0.0016 µM; IC50 [14]: 0.0027 µM |
| Permeable | c1ccc(Oc2ccc(Nc3ncnc4[nH]ccc34)cc2)cc1 | – | – | – | – |
| Permeable | Cc1cccc(Oc2ccc(Nc3ncnc4[nH]ccc34)cc2)c1 | – | – | – | – |
| Permeable | CN1C(C(=O)Nc2ccccn2)=C(O)c2ccccc2S1(=O)=O [PIROXICAM] | – | – | – | – |
| Permeable | Nc1ccc(Sc2ccc(Nc3ncnc4[nH]ccc34)cc2)cc1 | – | – | – | – |
| Permeable | Nc1nc(Nc2ccc(Oc3ccc(Cl)cc3)cc2)c2cc[nH]c2n1 | – | – | – | – |
| – | Oc1cccc(Nc2ncnc3[nH]ccc23)c1 | 6.7 | 6.1 | 0.9 | – |
| Permeable | Nc1nc(Nc2ccc(Oc3cccc(Cl)c3)cc2)c2cc[nH]c2n1 | – | – | 0.12 | – |
| Permeable | O=C(c1ccccc1)c1ccc(Nc2ncnc3[nH]ccc23)cc1 | – | – | – | Activity [11]: Active |
| – | Oc1ccccc1Nc1ncnc2[nH]ccc12 | – | – | – | inhibition [1]: 1%; inhibition [2]: 14% |
| Permeable | Fc1ccc(Oc2ccc(Nc3ncnc4[nH]ccc34)cc2)cc1 | – | – | 0.25 | – |
| Permeable | Clc1ccccc1Oc1ccc(Nc2ncnc3[nH]ccc23)cc1 | – | – | – | – |
| – | Oc1ccc(Nc2ncnc3[nH]ncc23)cc1 | – | – | – | inhibition [1]: 1%; inhibition [2]: 3% |
| Permeable | O=[N+]([O-])c1ccc(Oc2ccc(Nc3ncnc4[nH]ccc34)cc2)cc1 | – | – | – | – |
| – | Oc1cccc(Nc2ncnc3[nH]ncc23)c1 | – | 9.15 | 0.22 | inhibition [1]: 13% |
| Permeable | Cc1ccc(Oc2ccc(Nc3ncnc4[nH]ccc34)cc2)cc1 | – | – | – | Activity [7]: Active; Activity [8]: Active; Activity [11]: Active |
| – | O=C(c1ccc(Nc2ncnc3[nH]ccc23)cc1)c1ccc(Cl)c(Cl)c1 | – | – | – | inhibition [2]: 9% |

| permeability [6] | Compound | IC50 [3] [µM] | IC50 [4] [µM] | Selectivity Index [5] | other results |
| --- | --- | --- | --- | --- | --- |
| – | Oc1ccc(Nc2ncnc3[nH]ccc23)cc1 | 7.4 | 3 | 0.45 | – |
| Permeable | CNCCCN1c2ccccc2CCc2ccccc21 [DESIPRAMINE] | – | – | – | – |
| – | FC(F)(F)c1ccc(Oc2ccc(Nc3ncnc4[nH]ccc34)cc2)cc1 | – | – | – | inhibition [1]: 5% |
| Permeable | CCn1cc(C(=O)O)c(=O)c2cc(F)c(N3CCNCC3)nc21 [ENOXACIN] | – | – | – | – |
| Permeable | COc1cccc(Oc2ccc(Nc3ncnc4[nH]ccc34)cc2)c1 | – | – | – | Activity [11]: Active |
| – | CC(=O)c1ccc(Nc2ncnc3[nH]ccc23)cc1 | 9.3 | 4.3 | 0.46 | – |
| – | c1ccc(Nc2ncnc3sccc23)cc1 | – | – | – | inhibition [2]: 17% |
| – | FC(F)(F)c1cccc(Oc2ccc(Nc3ncnc4[nH]ccc34)cc2)c1 | – | – | – | inhibition [1]: 1% |
| – | CC1(N)CCN(Cc2ccn3ncnc(Nc4cc(O)cc(Br)c4)c23)CC1 | – | – | – | IC50 [14]: 0.17 µM |
| – | Clc1ccc(CNc2ncnc3[nH]ccc23)cc1 | – | – | – | inhibition [1]: 10%; inhibition [2]: 32% |
| – | Oc1ccc(CNc2ncnc3[nH]ccc23)cc1 | – | – | – | inhibition [1]: 10%; inhibition [2]: 23% |
| – | Oc1ccc(CCNc2ncnc3[nH]ccc23)cc1 | 37.7 | 12.8 | 0.33 | – |
| – | c1cc(Nc2ncnc3[nH]ccc23)cc(N2CCOCC2)c1 | 5.7 | 4.7 | 0.82 | – |
| – | COC(=O)c1cc(Nc2ncnc3[nH]ccc23)ccc1Br | 4.2 | 2.2 | – | – |
| – | c1nc(Nc2ccc(N3CCOCC3)cc2)c2cc[nH]c2n1 | 15.7 | 4.9 | 0.3 | – |
| – | c1ccc(-n2cc(COc3ccc(Nc4ncnc5[nH]ccc45)cc3)nn2)cc1 | – | – | – | inhibition [1]: 1%; inhibition [2]: 29% |
| Permeable | O=C(c1ccc(F)cc1)c1ccc(Nc2ncnc3[nH]ccc23)cc1 | – | – | – | – |
| – | Clc1ccccc1Nc1ncnc2[nH]ccc12 | 42.1 | 21.8 | 0.51 | – |
| Permeable | Cn1c(=O)c2c(ncn2C)n(C)c1=O [CAFFEINE] | – | – | – | – |
| Permeable | Nc1nc(Nc2ccc(Oc3cccc(C(F)(F)F)c3)cc2)c2cc[nH]c2n1 | – | – | 0.33 | – |
| Permeable | c1ccc(COc2ccc(Nc3ncnc4[nH]ccc34)cc2)cc1 | – | – | – | – |
| Permeable | COc1ccc(Oc2ccc(Nc3ncnc4[nH]ccc34)cc2)cc1 | – | – | – | – |
| Permeable | Brc1ccc(Oc2ccc(Nc3ncnc4[nH]ccc34)cc2)cc1 | – | – | – | – |
| – | Clc1ccc(Nc2ncnc3[nH]ccc23)cc1 | 20.3 | 3.2 | 0.15 | – |
| – | Clc1ccc(Nc2ncnc3sccc23)cc1 | – | – | – | inhibition [2]: 20% |

| Compound | permeability [6] | IC50 [3] [µM] | IC50 [4] [µM] | Selectivity Index [5] | other results |
| --- | --- | --- | --- | --- | --- |
| Cc1ccc(Cn2cc(COc3ccc(Nc4ncnc5[nH]ccc45)cc3)nn2)cc1 | Impermeable | 1.75 | 0.99 | 0.57 | – |
| c1ccc(Nc2ncnc3[nH]ccc23)cc1 | Permeable | 1.68 | 0.79 | 0.47 | – |
| c1cncc(Oc2ccc(Nc3ncnc4[nH]ccc34)cc2)c1 | Impermeable | 6.05 | 0.75 | 0.12 | – |
| Clc1ccc(Oc2ccc(Nc3ncnc4[nH]ccc34)cc2)cc1Cl | Permeable | 5.72 | 2.3 | 0.4 | – |
| CCOc1ccc(Nc2ncnc3[nH]ccc23)cc1 | Impermeable | 13.7 | 2.3 | 0.16 | Activity [11]: Active |
| c1ccc(CCn2cc(COc3ccc(Nc4ncnc5[nH]ccc45)cc3)nn2)cc1 | Impermeable | 2.61 | 0.39 | 0.15 | – |
| COc1ccc(Nc2ncnc3[nH]ccc23)cc1 | Impermeable | 1.32 | 0.52 | 0.39 | – |
| Clc1cccc(Cn2cc(COc3ccc(Nc4ncnc5[nH]ccc45)cc3)nn2)c1 | Impermeable | 2.03 | 0.48 | 0.24 | – |
| Clc1ccccc1Cn1cc(COc2ccc(Nc3ncnc4[nH]ccc34)cc2)nn1 | Impermeable | 2.75 | 0.36 | 0.13 | – |
| Nc1nc(Nc2ccc(Oc3ccc(C(F)(F)F)cc3)cc2)c2cc[nH]c2n1 | Permeable | – | 0.38 | 0.13 | Activity [11]: Active |
| CC(C)Oc1ccc(Nc2ncnc3[nH]ccc23)cc1 | Permeable | 8.4 | 1.5 | 0.17 | Activity [11]: Active |
| c1cc(Nc2ncnc3[nH]ccc23)c2c(c1)OCO2 | Permeable | 7.58 | 1.58 | 0.21 | Activity [11]: Active |
| Clc1ccc(Cn2cc(COc3ccc(Nc4ncnc5[nH]ccc45)cc3)nn2)cc1 | Impermeable | 2.87 | 0.61 | 0.21 | – |
| FC(F)(F)Oc1ccc(Nc2ncnc3[nH]ccc23)cc1 | Impermeable | 8.8 | 1 | 0.11 | – |
